Each structure is given as a SMILES string.

The assay has as its system strain HIV-III of the Human Immunodeficiency virus (HIV). The experiment in a line: Protection of HIV-infected human lymphocyte cell lines from virus destruction (syncytia formation, cell rounding/cytopathology), microtiter test. The format is cell-based. Conditions: Human immunodeficiency virus 1, Lymphocyte, continuous cell lines derived from human lymphocytes infected with HIV, incubated 7 to 14 days, microscopic inspection, tests (a) and (b), read-out: Protection of Cells. On the procedure: Continuous cell lines derived from human lymphocytes are grown in a microtiter test system. The cells are infected with strain […] of the Human Immunodeficiency virus (HIV), a standard strain isolated from a patient with Acquired Immune Deficiency Syndrome (AIDS). The treated cells are incubated for 7 to 14 days, and the treated cells are inspected by microscope to determine (a) prevention of synctia (cell to cell fusion) formation induced by HIV, or (b) prevention of cell rounding and prevention of HIV caused cytopathology. Such inspections indicate the ability of the compound to prevent cell killing by the virus. Additionally, biochemical determination of the cell media is made to ascertain the ability of the compound to prevent formation of viral products (reverse transcriptase, p24 antigen, or other products), and prevention of formation of more HIV itself.
The control refers to the treatment without a compound of the present invention.

Take `Cc1cn([C@H]2C[C@H](N=[N+]=[N-])[C@@H](COP(=O)(O)OCC3CCC(n4cnc5c(N)ncnc54)C3)O2)c(=O)[nH]c1=O` (some centres unmarked) [Compound of Example 1, 5′-O-[[[3-(6-Amino-9H-purin-9-yl)cyclopentyl]methoxy]hydroxyphosphinyl]-3′-azido-3′-deoxy-thymidine]: the inhibition at 32 µg/mL (Concentration 32 µg/ml) is 100%. Where the note is “Concentration 100 µg/ml”, the inhibition at 100 µg/mL was found to be 100%.

Values taken from patent EP0375183A1, “Antiviral dimers and trimers” (SCHERING CORPORATION, priority 1988, dated 1990).
